Measured values: patent EP4717691A1, “USE OF BMPR1B INHIBITOR IN INDUCED DEVELOPMENT, AND INDUCTION CULTURE MEDIUM” (Iregene Therapeutics Co., Ltd, priority 2023, dated 2024)

Experiments:
BMPR1B kinase = BMPR1B kinase (Homo sapiens, UniProt O00238); assay: Kinase activity screening (330 kinases, HTRF or ADP-Glo); type: biochemical; conditions: compound 2.5 mM, 25 nL in DMSO added to 5 µL reaction; Figure 1A
Experimental: (§1) A total of 330 kinase candidates (15-50 nM, 2.5 µL) were mixed with compound II-1 (2.5 mM, 25 nL, prepared in DMSO) and incubated at 25 °C for 10 minutes. Then, a mixture of kinase peptide substrate (0.2 mg/mL; supplier: GenScript) and ATP (10-60 µM; supplier: Promega; product number: V915B) was added (total 2.5 µL, prepared in assay buffer), and the reaction was carried out at 25 °C for 60-120 minutes. Finally, the reaction products were quantified using HTRF1 or ADP-Glo2 methods. During the kinase activity assay, the consumption of each substrate was kept below 10%, and each kinase assay was performed in duplicate.

TGFBR1 = target: T1, TGFBR1 (Homo sapiens, UniProt P36897); assay: Kinase activity assay (HTRF or ADP-Glo); type: biochemical
T1 sequence (P36897 34-503): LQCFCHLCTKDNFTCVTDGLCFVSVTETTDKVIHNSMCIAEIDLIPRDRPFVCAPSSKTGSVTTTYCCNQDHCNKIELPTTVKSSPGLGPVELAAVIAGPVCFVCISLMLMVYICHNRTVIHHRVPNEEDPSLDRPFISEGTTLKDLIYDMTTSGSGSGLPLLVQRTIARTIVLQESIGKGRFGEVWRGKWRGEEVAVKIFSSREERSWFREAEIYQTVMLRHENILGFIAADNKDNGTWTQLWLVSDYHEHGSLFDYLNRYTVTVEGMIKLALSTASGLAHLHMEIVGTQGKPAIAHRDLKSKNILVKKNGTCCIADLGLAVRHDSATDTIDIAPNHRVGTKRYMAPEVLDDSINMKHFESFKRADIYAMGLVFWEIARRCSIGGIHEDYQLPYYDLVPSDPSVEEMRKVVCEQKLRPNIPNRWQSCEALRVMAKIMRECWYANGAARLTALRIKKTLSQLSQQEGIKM
Experimental: as §1

BMPR2 = target: T2, BMPR2 (Homo sapiens, UniProt Q13873); assay: Kinase activity assay (HTRF or ADP-Glo); type: biochemical
T2 sequence (Q13873 27-1038): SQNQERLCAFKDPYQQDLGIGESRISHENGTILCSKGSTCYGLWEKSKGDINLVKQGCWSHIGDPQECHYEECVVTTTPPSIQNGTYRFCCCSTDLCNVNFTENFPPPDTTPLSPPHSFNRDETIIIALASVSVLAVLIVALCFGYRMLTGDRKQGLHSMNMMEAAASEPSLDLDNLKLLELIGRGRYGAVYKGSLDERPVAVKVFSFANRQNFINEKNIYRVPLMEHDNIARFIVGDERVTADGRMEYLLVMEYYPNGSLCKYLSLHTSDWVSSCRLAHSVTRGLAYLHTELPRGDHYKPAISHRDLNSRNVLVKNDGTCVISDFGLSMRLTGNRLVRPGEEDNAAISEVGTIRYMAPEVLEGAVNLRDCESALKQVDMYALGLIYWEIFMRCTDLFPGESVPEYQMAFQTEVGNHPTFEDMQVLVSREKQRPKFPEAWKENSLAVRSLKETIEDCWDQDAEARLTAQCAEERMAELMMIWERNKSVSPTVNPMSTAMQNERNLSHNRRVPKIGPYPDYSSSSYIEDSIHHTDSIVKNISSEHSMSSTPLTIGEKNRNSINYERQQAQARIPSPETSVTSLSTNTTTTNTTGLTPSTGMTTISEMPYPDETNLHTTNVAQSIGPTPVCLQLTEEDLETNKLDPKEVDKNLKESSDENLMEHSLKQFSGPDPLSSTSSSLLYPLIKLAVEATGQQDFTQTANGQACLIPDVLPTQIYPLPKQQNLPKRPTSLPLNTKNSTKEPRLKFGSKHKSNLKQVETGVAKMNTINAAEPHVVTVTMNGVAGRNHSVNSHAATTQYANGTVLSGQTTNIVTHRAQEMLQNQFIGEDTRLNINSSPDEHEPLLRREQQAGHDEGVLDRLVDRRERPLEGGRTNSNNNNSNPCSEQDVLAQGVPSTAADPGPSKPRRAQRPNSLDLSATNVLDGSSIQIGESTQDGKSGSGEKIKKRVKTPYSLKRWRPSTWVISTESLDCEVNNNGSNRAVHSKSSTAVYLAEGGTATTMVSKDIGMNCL
Experimental: as §1

pluripotent stem cell H9 = assay: Neural induction of H9 cells, marker gene mRNA by RNA-seq; type: cell-based, human; conditions: H9, increasing concentrations, day 7 and day 14, P < 0.05 t-test
Experimental: (§2) The induction medium comprises Dulbecco's Modified Eagle Medium (DMEM), Minimum Essential Medium Non-Essential Amino Acids (MEM NEAA, Cat. No. 11140076, Thermo Fisher), 4-Hydroxy-TEMPO (50 µM), D(+)-galactose (12.5 µg/mL), vitamin E (1 µg/mL), vitamin B12 (1.2 µM), vitamin C (64 mg/L), progesterone (6.3 ng/mL), 1,4-butanediamine (23 µg/mL), luteolin (60 µM), sodium chloride (0.5 g/L), […] (13.6 µg/L), insulin (22 µg/mL), recombinant human transferrin (100 ng/mL), and the BMPR1B inhibitor of the present invention (induction medium A uses BMPR1B inhibitor II-1; induction medium B uses BMPR1B inhibitor II-13).
(§3) Commercial human pluripotent stem cell lines H1, H9, and induced pluripotent stem cells (iPSCs) were used. The iPSCs were prepared according to the "reprogramming medium for the culture of reprogrammed iPSCs" using CD34+ cells (CN109628383A, Example 2). T25 culture flasks were coated with Matrigel (STEMCELL Technologies) and incubated at 37°C for at least one hour. Cells were seeded at 1 × 10^6 per T25 flask for expansion and passaging.
(§4) 6-well plates were coated with 50 µg/mL poly-L-lysine (SIGMA, Cat. No. P6407) and incubated at 37°C for at least 3 hours, followed by coating with 5 µg/mL laminin (SIGMA ALDRICH, Cat. No. 12020) and further incubation at 37°C for at least 3 hours. […]

SMAD2/3 = assay: Western blot of TGF signaling pathway in H1 cells; type: cell-based, human; conditions: 6 µL of 30 µM compound in 2 mL, within 24 hours of treatment, Figure 3
Experimental: (§5) The inhibitory effect of the pyrazolecarbonyl piperazinone compounds on the BMP signaling pathway was further validated by Western blot analysis. Commercial human pluripotent stem cell line H1 was seeded in a 6-well plate at 1.5 × 10^6 cells per well in 2 mL of culture medium. After one day of culture, the medium was replaced, and 6 µL of 30 µM pyrazolecarbonyl piperazinone compound II-1 was added. Cells were treated for 12, 24, and 36 hours, after which the cells were harvested and protein samples were prepared according to the instructions of a commercial kit (Beyotime Biotechnology; Cat. No. P0013). Western blot analysis was performed as described in the literature (H. Zhang et al., 2022; N. Zhang et al., 2021). […] Table 2. Antibody Information

SMAD1/5/8 = assay: Western blot of BMP signaling pathway in H1 cells; type: cell-based, human; conditions: 6 µL of 30 µM compound in 2 mL, within 24 hours of treatment, Figure 3
Experimental: as §5

[1] = tested on: induced pluripotent stem cells (iPSCs); assay: Neural induction of iPSCs, marker gene mRNA by RNA-seq; type: cell-based, human; conditions: iPSCs vs untreated control, day 7 and day 14, dose-dependent; Figure 6
Experimental: as §2, §3
6-well plates were coated with 50 µg/mL poly-L-lysine (SIGMA, Cat. No. P6407) and incubated at 37°C for at least 3 hours, followed by coating with 5 µg/mL laminin (SIGMA ALDRICH, Cat. No. 12020) and further incubation at 37°C for at least 3 hours. When pluripotent stem cells reached 70% confluency, they were digested with EDTA at 37°C for 5 minutes, and digestion was terminated using DMEM. Cells were washed, centrifuged, and reseeded in T25 flasks at 2 × 10^5 cells per flask. Induction was carried out using the aforementioned induction media: H9 cells were induced with induction medium A, while H1 cells and iPSCs were induced with induction medium B. The medium was refreshed daily until day 14.
Samples were collected on day 7 and day 14 of induction. RNA was processed using the VAHTS Universal V8 RNA-seq Library Prep Kit for Illumina (Vazyme, NR605-01/02), and sequencing was performed on an Illumina platform. […]

H1 cells = assay: Neural induction of H1 cells, marker gene mRNA by RNA-seq; type: cell-based, human; conditions: H1, increasing concentrations, day 7 and day 14; Figure 5
Experimental: as §2, §3, §4

[2] = at the same concentration as the screen
[3] = different concentrations, up to 12.5 µM, threefold serial dilution, Figure 1B, C

BMPR1B kinase, sequence (O00238 14-502): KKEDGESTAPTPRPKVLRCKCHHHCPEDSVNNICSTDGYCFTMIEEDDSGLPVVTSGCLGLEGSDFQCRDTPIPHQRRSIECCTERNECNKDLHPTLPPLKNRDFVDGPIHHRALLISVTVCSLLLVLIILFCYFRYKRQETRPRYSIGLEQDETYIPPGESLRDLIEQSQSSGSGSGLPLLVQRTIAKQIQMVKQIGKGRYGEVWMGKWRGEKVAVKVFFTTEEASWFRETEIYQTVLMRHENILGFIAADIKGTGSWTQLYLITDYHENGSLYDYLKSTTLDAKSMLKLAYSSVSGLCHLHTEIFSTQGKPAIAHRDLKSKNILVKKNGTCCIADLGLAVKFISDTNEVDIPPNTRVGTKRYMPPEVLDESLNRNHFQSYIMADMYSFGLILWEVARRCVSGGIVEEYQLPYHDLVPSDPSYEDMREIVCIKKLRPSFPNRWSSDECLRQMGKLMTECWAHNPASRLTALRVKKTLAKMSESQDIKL

Row | inhibitory activity against BMPR1B kinase (BMPR1B kinase) | inhibition of kinase activity of TGFBR1 (TGFBR1; [2]) | inhibition of TGFBR1 kinase (TGFBR1; [3]) | inhibition of kinase activity of BMPR2 (BMPR2; [2]) | inhibition of BMPR2 kinase (BMPR2; [3]) | SMILES | neural progenitor marker PAX6 expression (pluripotent stem cell H9) | pluripotency marker NANOG expression (pluripotent stem cell H9) | phosphorylation of SMAD2/3 (SMAD2/3) | phosphorylation levels of SMAD1/5/8 (SMAD1/5/8) | neural differentiation marker VIM expression [1] | neural progenitor marker Sox1 expression [1] | neural progenitor marker Sox5 expression [1] | glial progenitor marker gene Sox9 expression (H1 cells) | neural marker gene MAP2 expression (H1 cells)
1 | significant inhibitory activity | did not inhibit | no inhibition | did not inhibit | no inhibition | O=C1CN(C(=O)c2n[nH]c3c2CCC3)[C@H]2CCCC[C@@H]2N1 [II-1, (4aS,8aS)-4-(1,4,5,6-tetrahydrocyclopenta[c]pyrazole-3-carbonyl)octahydroquinoxalin-2(1H)-one] | corresponding increase | dose-dependent decrease | did not inhibit | significantly suppressed | – | – | – | – | –
2 | – | – | – | – | – | O=C1CN(C(=O)c2n[nH]c3ccccc23)[C@H]2CCCC[C@@H]2N1 [II-13, (4aS,8aS)-4-(1H-indazole-3-carbonyl)octahydroquinoxalin-2(1H)-one] | – | – | – | – | significantly increased expression | significantly increased expression | significantly increased expression | dose-dependent response | dose-dependent response
